Source: patent publication US20170136030A1, “TREATMENT OF MALARIA USING INHIBITORS OF THE ISPD ENZYME IN THE NON-MEVALONATE PATHWAY” (Washington University, priority 2014, published 2017)

Experiments:
[1] = test system: cultured Plasmodium falciparum parasite strain 3D7; experiment: Antimalarial efficacy, parasite growth inhibition by Sybr Green staining; assay type: cell-based; settings: P. falciparum strain 3D7
Protocol: Each compound was tested for the ability to inhibit growth of a standard cultured Plasmodium falciparum parasite strain 3D7. Parasite growth was monitored by staining with the DNA fluorophore Sybr Green, as previously described for the antimalarial fosmidomycin in Zhang et al., Biochemistry, (2011) 50(17), 3570-3577. Each compound was evaluated for antimalarial activity over several concentrations. Nonlinear regression analysis was used to determine the concentration of half-maximal antimalarial efficacy (EC50) for each compound.

[2] = biological target: purified recombinant Plasmodium falciparum methylerythritol cytidyltransferase (PfIspD) enzyme (Plasmodium falciparum, UniProt Q8I273); experiment: biochemical; settings: nonlinear regression
Protocol: Compounds listed in Table 1 were tested for activity against purified recombinant Plasmodium falciparum methylerythritol cytidyltransferase (PfIspD) enzyme. […] Each compound was evaluated for enzymatic inhibition over several concentrations. Nonlinear regression analysis (GraphPad Prism) was used to determine the half-maximal inhibitory concentration (IC50) for each compound.

[3] = test system: MEP pathway; experiment: Metabolic profiling of inhibitor-treated malaria parasites (LC-MS/MS); assay type: cell-based; settings: parasite lines treated with compound, FIG. 3
Excerpt: A quantitative liquid chromatography-mass spectrometry method (LC-MS/MS) was developed to determine the cellular levels of metabolites in the MEP pathway. This method allows determination of whether the MEP pathway has been inhibited in malaria parasites treated with MEP pathway inhibitors of the present invention. This method has been previously used to validate the cellular metabolic effects of the known MEP pathway inhibitor fosmidomycin (Zhang et al., Biochemistry 2011).

Sequence of purified recombinant Plasmodium falciparum methylerythritol cytidyltransferase (PfIspD) enzyme (Q8I273 entry or part of it): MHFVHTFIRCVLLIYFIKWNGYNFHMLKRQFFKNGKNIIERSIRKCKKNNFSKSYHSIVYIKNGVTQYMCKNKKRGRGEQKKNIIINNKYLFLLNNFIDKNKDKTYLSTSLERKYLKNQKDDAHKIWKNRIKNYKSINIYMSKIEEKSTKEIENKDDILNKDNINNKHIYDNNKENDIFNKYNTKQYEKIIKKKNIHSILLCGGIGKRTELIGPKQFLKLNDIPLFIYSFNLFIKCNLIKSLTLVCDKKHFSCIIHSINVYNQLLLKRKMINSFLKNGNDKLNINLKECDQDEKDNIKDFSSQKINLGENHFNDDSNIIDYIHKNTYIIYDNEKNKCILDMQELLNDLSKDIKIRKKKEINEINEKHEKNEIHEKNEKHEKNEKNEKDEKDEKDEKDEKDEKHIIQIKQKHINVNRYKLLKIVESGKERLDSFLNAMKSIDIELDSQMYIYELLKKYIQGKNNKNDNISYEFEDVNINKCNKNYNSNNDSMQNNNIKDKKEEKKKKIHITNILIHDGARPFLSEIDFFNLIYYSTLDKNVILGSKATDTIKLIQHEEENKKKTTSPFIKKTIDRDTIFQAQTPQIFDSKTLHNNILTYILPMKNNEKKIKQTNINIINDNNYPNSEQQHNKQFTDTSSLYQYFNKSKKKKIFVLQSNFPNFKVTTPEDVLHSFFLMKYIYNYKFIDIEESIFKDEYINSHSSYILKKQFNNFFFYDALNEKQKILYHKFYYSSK

Compound | EC50 [1] [µM] | IC50 [2] [µM] | cellular level of downstream MEP pathway metabolite CDP-ME [3] | cellular level of downstream MEP pathway metabolite cMEPP [3]
O=c1c2ccccc2sn1-c1cc(S(=O)(=O)N2CCOCC2)ccc1N1CCCC1 [Compound 2, 1,2-benzisothiazol-3(2H)-one,2-[-5-(4-morpholinylsulfonyl)-2-(1-pyrrolidinyl)phenyl]] | 17.1 | 7.26 |  | 
Cc1ccc(-n2sc3ccccc3c2=O)cc1S(=O)(=O)N1CCOCC1 [Compound 3, 1,2-benzisothiazol-3(2H)-one,2-[4-methyl-3-(4-morpholinylsulfonyl)phenyl]] | 4.96 | 0.506 |  | 
O=c1c2ccccc2sn1-c1ccc(S(=O)(=O)N2CCOCC2)cc1 [Compound 4, 1,2-benzisothiazol-3(2H)-one,2-[4-(4-morpholinylsulfonyl)phenyl]] | 20.8 | 30.9 |  | 
O=c1c2ccccc2sn1-c1cccc(S(=O)(=O)N2CCOCC2)c1 [Compound 10, 2-(3-morpholinosulfonyl)phenylbenzo[d]isothiazol-3(2H)-one] | 7.4 | 0.656 |  | 
CSc1ccccc1C(=O)Nc1cccc(S(=O)(=O)N2CCOCC2)c1 [Compound 11, 2-(methylthio)-(N-((3-morpholinosulfonyl)phenyl)benzamide)] | 82.6 | > 200 |  | 
Cc1nnsc1C(=O)Nc1cc(S(=O)(=O)N2CCCCC2)ccc1O [Compound 19, N-[2-hydroxy-5-(piperidine-1-sulfonyl)phenyl]-4-methyl-1,2,3-thiadiazole-5-carboxamide] | > 200 | 58.9 |  | 
COc1ccc(S(=O)(=O)N2CCOCC2)cc1-n1sc2ccccc2c1=O [Compound 24, 2-(2-methoxy-5-(morpholinosulfonyl)phenyl)benzo[d]isothiazol-3(2H)-one] | 8.61 | 1.08 |  | 
COc1ccc(S(=O)(=O)N2CCCCC2)cc1-n1sc2ccccc2c1=O [Compound 25, 2-(2-methoxy-5-(piperidin-1-ylsulfonyl)phenyl)benzo[d]isothiazol-3(2H)-one] | 14.3 | 0.809 |  | 
COc1ccc(S(=O)(=O)N2CCC(F)CC2)cc1-n1sc2ccccc2c1=O [Compound 26, 2-(5-((4-fluoropiperidin-1-yl)sulfonyl)-2-methoxyphenyl)benzo[d]isothiazol-3(2H)-one] | 6.11 | 0.866 |  | 
COc1ccc(S(=O)(=O)N2CCCOCC2)cc1-n1sc2ccccc2c1=O [Compound 27, 2-(5-((1,4-oxazepan-4-yl)sulfonyl)-2-methoxyphenyl)benzo[d]isothiazol-3(2H)-one] | 9.1 | 0.542 |  | 
COc1ccc(S(=O)(=O)N2CCN(C)CC2)cc1-n1sc2ccccc2c1=O [Compound 28, 2-(2-methoxy-5-((4-methylpiperazin-1-yl)sulfonyl)phenyl)benzo[d]isothiazol-3(2H)-one] | 2.47 | 1.95 |  | 
COc1ccc(S(=O)(=O)N2CCNCC2)cc1-n1sc2ccccc2c1=O [Compound 36, 2-(2-methoxy-5-(piperazin-1-ylsulfonyl)phenyl)benzo[d]isothiazol-3(2H)-one] | 0.97 | 1.15 |  | 
O=c1c2ccccc2sn1-c1cc(S(=O)(=O)N2CCOCC2)ccc1O [Compound 37, 2-(2-hydroxy-5-(morpholinosulfonyl)phenyl)benzo[d]isothiazol-3(2H)-one] | 7.59 | 0.71 |  | 
O=c1c2ccccc2sn1-c1cc(S(=O)(=O)N2CCC(F)CC2)ccc1O [Compound 38, 2-(5-((4-fluoropiperidin-1-yl)sulfonyl)-2-hydroxyphenyl)benzo[d]isothiazol-3(2H)-one] | 10.1 | 13.2 |  | 
O=c1c2ccccc2sn1-c1cc(S(=O)(=O)N2CCCCC2)ccc1O [Compound 39, 2-(2-hydroxy-5-(piperidin-1-ylsulfonyl)phenyl)benzo[d]isothiazol-3(2H)-one] | 9.21 | 5.39 |  | 
O=c1c2ccccc2sn1-c1cc(S(=O)(=O)N2CCCOCC2)ccc1O [Compound 40, 2-(5-((1,4-oxazepan-4-yl)sulfonyl)-2-hydroxyphenyl)benzo[d]isothiazol-3(2H)-one] | 14.6 | 1.95 |  | 
COc1ccc(-c2cccc(-n3sc4ccccc4c3=O)c2)cc1 [Compound 41, 2-(4′-methoxy-[1,1′biphenyl]-3-yl)benzo[d]isothiazol-3(2H)-one] | 0.77 |  | significantly decreased | significantly decreased
O=c1c2ccccc2sn1-c1cccc(-c2ccsc2)c1 [Compound 42, 2-(3-(thiophen-3-yl)phenyl)benzo[d]isothiazol-3(2H)-one] | 2.88 | 0.29 |  | 
O=c1c2ccccc2sn1-c1cccc(-c2ccc(Cl)cc2)c1 [Compound 43, 2-(4′-chloro-[1,1′biphenyl]-3-yl)benzo[d]isothiazol-3(2H)-one] | 0.61 | 0.16 |  | 
O=c1c2ccccc2sn1-c1cccc(-c2ccc(C(F)(F)F)cc2)c1 [Compound 44, 2-(4′-(trifluoromethyl)-[1,1′biphenyl]-3-yl)benzo[d]isothiazol-3(2H)-one] | 0.45 | 0.31 |  | 
COC(=O)c1cccc(-n2sc3ccccc3c2=O)c1 [Compound 45, Methyl-3-(3-oxobenzo[d]isothiazol-2(3H)-yl)benzoate] | 11.7 | 0.15 |  | 
O=C(O)c1cccc(-n2sc3ccccc3c2=O)c1 [Compound 46, 3-(3-oxobenzo[d]isothiazol-2(3H)-yl)benzoic acid] | > 200 | 0.48 |  | 
O=c1c2ccccc2sn1-c1ccccn1 [Compound 47, 2-(pyridin-2-yl)benzo[d]isothiazol-2(3H)-one] | 70 | 0.17 |  | 
O=c1c2ccccc2sn1Cc1ccccc1 [Compound 48, 2-benzylbenzo[d]isothiazol-2(3H)-one] |  | 2.43 |  | 
O=c1c2ccccc2sn1Cc1ccc(Cl)cc1 [Compound 49, 2-(4-chlorobenzyl)benzo[d]isothiazol-2(3H)-one] | 17.9 | 0.62 |  | 
O=c1[nH]sc2ncccc12 [Compound 50, Isothiazolo[5,4-b]pyridin-3(2H)-one] | 160 | 56.2 |  | 
COc1ccc(Cn2sc3ccccc3c2=O)cc1 [Compound 51, 2-(4-methoxybenzyl)benzo[d]isothiazol-2(3H)-one] | 67.6 | 1.34 |  | 
O=c1c2cccnc2sn1Cc1ccccc1 [Compound 52, 2-benzylisothiazolo[5,4-b]pyridin-3(2H)-one] |  | 1.52 |  | 
